# Results taken from US20240010683A1, “Peptide Inhibitors of Human Mitochondrial Fission Protein 1 and Methods of Use” (The Medical College of Wisconsin, Inc., priority 2020, published 2024).
# “Also recorded” adds a separate entry of the source.
# Columns and labels:
# [1] = test system: aortic endothelium of diabetic mice; conditions: cited from earlier work
# HMEC-1 cells = assay: NO production and eNOS activation in HMEC-1 cells; type: cell-based, human; conditions: non-transfected HMEC-1 cells
# Method: FIG. 14. Phosphorylation of eNOS at Ser1177 and NO production increased in HMEC-1 cells upon activation with Ca+2 ionophore A23187 (A) representative western blot of p-eNOS-Ser1177) and β-actin with and without addition of A23187.(B) Quantitative measure of p-eNOS-(Ser1177) treated with and without A23187 (P=0.03, n=6). (C) NO production as measured using DAF2-DA (5 uM) increased upon addition of A23187 (n=4, P=0.02).
# FIG. 15. […] Cells exposed to L-NAME were incubated with L-NAME for 2 hours followed by a 15-minute incubation with DAF2-DA (5 uM) prior to measurement of fluorescence intensity.
# Cells in Culture: To measure nitric oxide (NO) bioavailability in HMEC-1 cells and arterioles, a fluorescent NO marker, 4,5-diaminofluorescein diacetate (DAF2-DA from Cayman Chemical) was used. […] Fluorescence intensity was measured using a SPECTRAFluor Plus plate reader (Tecan, Morrisville, NC) using excitation and emission wavelengths of 485 nm and 535 nm, respectively. […] The arterioles were then washed with PBS buffer, mounted on a slide, and imaged by fluorescence microscopy. Untreated and unstained arterioles were used as controls for fluorescence background interference. Both treated and control vessels were measured using the same gain settings and the results were analyzed using Meta Morph 7.8 software (Universal imaging, West Chester, PA).
# cardiac myocytes = conditions: rat model of T2DM (OLEFT), cited from earlier work
# ApoE knockout mice = conditions: cited from earlier work
# [2] = test system: human resistance arteries; assay: Endothelium-dependent vasodilation to acetylcholine, resistance arteries from healthy subjects exposed to high or low glucose; conditions: for impaired endothelium-dependent vasodilation to acetylcholine: high glucose 33 mM six hours, 1-10 μM peptide
# Excerpt: (§1) Human Resistance Artery Acquisition: Human resistance arteries from adipose samples were obtained from the upper outer quadrant of the gluteal adipose pad as previously described.^2,8,13,15,16 Briefly, following sterilization and anesthesia with 1% lidocaine, a 1-1.5 cm incision is made in the upper outer quadrant of the gluteal adipose pad. An approximately 8 cm^3 volume of adipose tissue was removed by sharp dissection. After achieving hemostasis, the wounds were closed with 1-2 absorbable deep dermal sutures and the epidermal layer closed using either Dermabond or steristrips.
# (§2) Transfection of human resistance arteries with siRNA constructs was performed as previously described.^8,13 Briefly, resistance arteries dissected from adipose tissue were suspended in a culture myograph chamber (204 CM, DMT, Ann Arbor). One end of the vessel was sutured onto a glass pipette within a micro-organ chamber. Prior to suturing the second end of the arteriole to a glass pipette, Fis1 siRNA, Drp1 siRNA (20 nM in optiMEM using Lipofectamine RNAiMax, Invitrogen) or control scrambled siRNA (20 nM) were gently injected, into the vessel lumen. The loose end of the vessel is then tied onto another glass pipette, and the vessel is suspended in the chamber and placed on a myograph stage bathed in physiological buffer at 37° C. and pressurized to 60 mmHg. Following 4-6 hours of incubation, the siRNA is slowly washed out of the lumen over 24 hours at a low shear rate (□<5 dyn/cm^2).
# (§3) Measurement of Endothelium-Dependent Vasoactivity: Transfected resistance arteries from healthy individuals were exposed to either normal glucose conditions (NG, glucose level 5 mM), 2 hours of low glucose (LG, glucose level 2.5 mM) or 6 hours of high glucose (HG, glucose level 33 mM). All studies in vessels from patients with T2DM were performed at 5 mM glucose. Vessels were pre-constricted approximately 50% of resting diameter with endothelin-1 (Sigma Aldrich, USA). The constricted arterioles are then exposed to acetylcholine (Ach) at serially increasing doses from 10^−10 to 10^−5 M, and changes in vessel diameter were measured using digital calipers and videomicroscopy. Following the 10^−5 M dose, vessels were exposed to 200 μM papaverine to test the smooth muscle reactivity. Following a 30-minute washout period, the same arterioles were re-constricted and incubated with L-NG-nitroarginine methyl ester (L-NAME, 100 μM), a direct inhibitor of nitric oxide synthase, for 30 minutes and vasodilation subsequently was remeasured following the exposure to Ach 10^−10 to 10^−5 M.
# [3] = test system: vessels from T2DM subjects; assay: Endothelium-dependent vasodilation to acetylcholine, resistance vessels from T2DM subjects; set-up: species or system human; conditions: for impaired endothelium-dependent vasodilation to acetylcholine: 5 mM glucose, 1 or 10 μM peptide
# Excerpt: as §1, §2, §3
# [4] = test system: human resistance arteries; assay: NO bioavailability (DAF2-DA fluorescence) in human resistance arteries; conditions: healthy vessels, HG and LG
# Method: Cells in Culture: To measure nitric oxide (NO) bioavailability in HMEC-1 cells and arterioles, a fluorescent NO marker, 4,5-diaminofluorescein diacetate (DAF2-DA from Cayman Chemical) was used. In a dark room, cells were incubated with or without 100 μM L-NAME for 2 hours followed by 15 minutes of incubation with DAF2-DA (5 μM) at 37° C. Fluorescence intensity was measured using a SPECTRAFluor Plus plate reader (Tecan, Morrisville, NC) using excitation and emission wavelengths of 485 nm and 535 nm, respectively. Human Resistance Arteries: Two vessels were obtained from a subset of healthy subjects and each vessel was cut in half to allow for four experimental conditions which included transfection with Fis1 siRNA or Drp1 siRNA with and without concomitant exposure to L-NAME for 30 minutes and transfection with scrambled siRNA control with and without concomitant exposure to L-NAME at room temperature. […] The arterioles were then washed with PBS buffer, mounted on a slide, and imaged by fluorescence microscopy. Untreated and unstained arterioles were used as controls for fluorescence background interference. Both treated and control vessels were measured using the same gain settings and the results were analyzed using Meta Morph 7.8 software (Universal imaging, West Chester, PA).
# [5] = test system: resistance arterioles from healthy humans over-expressing Fis1 in the endothelium; assay: Endothelium-dependent vasodilation in resistance arterioles over-expressing Fis1; set-up: species or system human; conditions: 1 μM peptide, one hour of exposure
# Method: FIG. 19. Pep213 can reverse impaired endothelium-dependnet vasodilation in resistance arterioles. One hour of exposure to pep213 attached to a tat sequence to improve cell penetration (1 μM pep213-tat) reverses impaired endothelium-dependent vasodilation in resistance arterioles from healthy humans over-expressing Fis1 in the endothelium (overexpression of human Fis1 achieved using lentiviral vector to transfect the vessel with a plasmid for endothelial-specific over-expression of human Fis1). 1 μM of a scrambled peptide using the same amino acids as pep213 in a random order has no effect on endothelium dependent vasodilation to acetylcholine. Pep213-tat induce improves endothelium-dependent vasodilation in an eNOS-dependent manner (as determined by the loss in acetylcholine induced endothelium-dependent vasodilation with the use of eNOS inhibitor L-NAME). N=5, P<0.001 overall. *P<0.05 at the indicated doses of acetylcholine. Ach-acetylcholine.
# Further the peptide of the present invention, e.g., Pep213, can reverse impaired endothelium-dependent vasodilation in resistance arterioles. […] Pep213-tat induce improves endothelium-dependent vasodilation in an eNOS-dependent manner (as determined by the loss in acetylcholine induced endothelium-dependent vasodilation with the use of eNOS inhibitor L-NAME). […]
# [6] = test system: human microvascular endothelial cells (HMVEC); assay: NO bioavailability (DAF2-DA) in endothelial cells treated with peptide; type: cell-based; conditions: 1 μM peptide, one hour, 37° C.
# Method: FIG. 17. The bioavailability of nitric oxide (NO) increased in human microvascular endothelial cells (HMVEC) treated with novel peptide pep213. HMVEC cells were treated with 1 μM pep213-tat for one hour at 37° C. and NO was measured with diaminofluorescein-2 diacetate (DAF2-DA) staining. N=3,* P=0.04.
# Cells in Culture: To measure nitric oxide (NO) bioavailability in HMEC-1 cells and arterioles, a fluorescent NO marker, 4,5-diaminofluorescein diacetate (DAF2-DA from Cayman Chemical) was used. In a dark room, cells were incubated with or without 100 μM L-NAME for 2 hours followed by 15 minutes of incubation with DAF2-DA (5 μM) at 37° C. Fluorescence intensity was measured using a SPECTRAFluor Plus plate reader (Tecan, Morrisville, NC) using excitation and emission wavelengths of 485 nm and 535 nm, respectively. […] The arterioles were then washed with PBS buffer, mounted on a slide, and imaged by fluorescence microscopy. Untreated and unstained arterioles were used as controls for fluorescence background interference. Both treated and control vessels were measured using the same gain settings and the results were analyzed using Meta Morph 7.8 software (Universal imaging, West Chester, PA).
compound,measurement,setting,value
N#C[C@@H]1CCCN1C(=O)CNC12CC3CC(CC(O)(C3)C1)C2 [vildagliptin],NO production,[1]; aortic endothelium of diabetic mice,increasing
same,Drp1 translocation from the cytosol,[1]; diabetic mice,reduces
same,ROS production,[1]; diabetic mice,reduces
same,expression of Fis1 and Drp1,[1]; diabetic mice,reduces
same,mitochondrial fission,[1]; diabetic mice,reduces
CNc1ccc2oc(C[C@H]3O[C@@]4(CC[C@H]3C)O[C@H]([C@H](C)C(=O)c3ccc[nH]3)[C@H](C)C[C@H]4C)nc2c1C(=O)O [A23187],NO production (DAF2-DA fluorescence intensity),HMEC-1 cells,significant increase; also recorded: increased
same,eNOS phosphorylation at Ser1177,HMEC-1 cells,significant increase; also recorded: increased
OC[C@H]1O[C@@H](c2ccc(Cl)c(Cc3ccc(O[C@H]4CCOC4)cc3)c2)[C@H](O)[C@@H](O)[C@@H]1O [Empagliflozin],"mitochondrial superoxide dismutase, SOD2",cardiac myocytes; cardiac myocytes,up-regulated
same,Fis1 over-expression,cardiac myocytes,reduced
same,mitochondrial fission,cardiac myocytes,reduced
CN(C)C(=N)N=C(N)N [Metformin],atherosclerotic formation,ApoE knockout mice,reduces
"COC(=O)[C@@H](N)CCCNC(=N)N[N+](=O)[O-] [L-NAME, L-NG-nitroarginine methyl ester]",effect of L-NAME on protective effect of Fis1 siRNA,"[2]; healthy vessels, HG and LG",completely blocked
same,effect of L-NAME on improvement seen with pep213-tat,"[2]; healthy vessels, high glucose, L-NAME 100 μM",abolished the improvements; also recorded: reversed all improvements
same,effect of L-NAME on improvement seen with pep213-TAT,"[3]; T2DM vessels, L-NAME 100 μM",abolished the improvements
same,effect of L-NAME on favorable effect of Fis1 siRNA,[3]; vessels from diabetic subjects,completely attenuated
same,effect of L-NAME on Fis1 siRNA increase in DAF2-DA fluorescence,[4],completely abolished
YGRKKRRQRRRGSGSGSSHKHDPLPYPHFLL (Synthetic - Pep213 fused to TAT (pep213-TAT)),papaverine response (smooth muscle reactivity),"[2]; 200 μM papaverine, healthy and T2DM vessels",did not impact
same,impaired endothelium-dependent vasodilation to acetylcholine,[2]; healthy vessels,reversed
same,impaired endothelium-dependent vasodilation to acetylcholine,"[2]; healthy vessels, listed as Pep213-tat",reversed
same,impaired endothelium-dependent vasodilation to acetylcholine,"[2]; healthy vessels, listed as Tat sequence-linked pep213",improved
same,impaired endothelium-dependent vasodilation to acetylcholine,"[2]; healthy vessels, listed as pep213-TAT",significant improvement
same,impaired endothelium-dependent vasodilation to acetylcholine,[3]; T2DM vessels,reverses
same,impaired endothelium-dependent vasodilation to acetylcholine,"[3]; T2DM vessels, listed as Pep213-tat",reversed
same,impaired endothelium-dependent vasodilation to acetylcholine,"[3]; T2DM vessels, listed as Tat sequence-linked pep213",improved
same,impaired endothelium-dependent vasodilation to acetylcholine,"[3]; T2DM vessels, listed as pep213-TAT",significant improvement
same,impaired endothelium-dependent vasodilation to acetylcholine,[5],reverses
same,NO bioavailability (DAF2-DA fluorescence),[6],increased
same,NO bioavailability (DAF2-DA fluorescence),[6]; listed as pep213-TAT,significant increase
